Test results: patent US20040022782A1, “Cyclitol containing carbohydrates from human tissue which regulate glycogen metabolism” (Rodaris Pharmaceuticals Limited, priority 1996, published 2004)

How the values were obtained:
[1] = target: T1, pyruvate dehydrogenase phosphatase isolated from bovine heart (Bos taurus, UniProt P35816); assay: Stimulation of pyruvate dehydrogenase (PDH) phosphatase; type: biochemical
T1 construct: pyruvate dehydrogenase phosphatase isolated from bovine heart; from tissue; host or cells: bovine heart
T1 sequence (P35816 72-538): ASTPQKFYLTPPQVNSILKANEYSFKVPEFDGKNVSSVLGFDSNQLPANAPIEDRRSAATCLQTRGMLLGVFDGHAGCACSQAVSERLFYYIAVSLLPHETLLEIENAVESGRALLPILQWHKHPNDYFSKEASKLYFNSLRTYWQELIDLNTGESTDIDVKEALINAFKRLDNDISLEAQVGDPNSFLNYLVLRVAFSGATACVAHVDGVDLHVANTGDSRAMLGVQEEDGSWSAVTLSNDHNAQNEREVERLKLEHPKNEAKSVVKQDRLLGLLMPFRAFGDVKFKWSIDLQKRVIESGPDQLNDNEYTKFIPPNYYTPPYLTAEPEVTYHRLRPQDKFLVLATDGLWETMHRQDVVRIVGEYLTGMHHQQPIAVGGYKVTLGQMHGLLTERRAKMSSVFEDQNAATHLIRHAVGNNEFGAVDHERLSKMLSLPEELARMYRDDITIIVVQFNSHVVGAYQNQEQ
T1 sequence (O46504 32-878 partner limits assumed): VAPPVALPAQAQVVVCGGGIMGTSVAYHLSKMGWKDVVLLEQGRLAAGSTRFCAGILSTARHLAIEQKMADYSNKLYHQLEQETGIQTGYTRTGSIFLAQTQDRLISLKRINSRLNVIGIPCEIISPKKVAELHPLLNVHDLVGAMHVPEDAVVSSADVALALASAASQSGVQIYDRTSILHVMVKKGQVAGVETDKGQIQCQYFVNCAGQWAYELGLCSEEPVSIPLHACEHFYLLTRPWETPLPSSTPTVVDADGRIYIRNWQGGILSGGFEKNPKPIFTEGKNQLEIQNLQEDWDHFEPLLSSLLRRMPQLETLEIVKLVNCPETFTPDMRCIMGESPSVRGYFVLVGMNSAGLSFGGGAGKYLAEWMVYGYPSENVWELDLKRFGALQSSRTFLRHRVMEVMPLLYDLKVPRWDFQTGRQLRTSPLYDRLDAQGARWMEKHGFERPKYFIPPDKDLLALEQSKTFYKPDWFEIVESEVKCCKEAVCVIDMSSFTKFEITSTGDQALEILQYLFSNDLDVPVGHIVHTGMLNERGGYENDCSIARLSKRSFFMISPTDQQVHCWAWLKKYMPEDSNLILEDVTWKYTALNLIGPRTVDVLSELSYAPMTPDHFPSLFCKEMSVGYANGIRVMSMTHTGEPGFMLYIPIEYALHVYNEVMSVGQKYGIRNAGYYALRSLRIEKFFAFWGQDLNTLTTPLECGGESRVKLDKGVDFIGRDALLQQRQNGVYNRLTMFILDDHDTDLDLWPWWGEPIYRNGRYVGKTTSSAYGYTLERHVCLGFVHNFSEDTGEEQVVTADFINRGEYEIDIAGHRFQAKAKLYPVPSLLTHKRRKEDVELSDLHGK
Protocol: Pyruvate dehydrogenase complex (PDC) and the PDH phosphatase were prepared and stored at −80° C. until use. The assay for both PDH phosphatases, in the presence of absence of insulin mediator, was based upon the initial rate of activation of inactivated, phosphorylated PDH complex. […] A two stage assay was used to quantitate the phosphatase activity. A sample of inactivated PDC (50 μL) was preincubated at 30° C. with 1 mg/mL fat-free BSA, 10 mM MgCl2, 0.1 mM CaCl2 and […] DTT in 20 mM potassium phosphate buffer at pH 7.0 (total volume 250 μL) for three minutes. At this time, 10 μL of the PDH phosphatase and 10 μL of IPG were added and the incubation continued for a further 2 min. At the end of this time, 200 μL of the mix was removed and added to 100 μL of 300 mM NaF. The activated PDH was determined at the second stage photometrically by measuring the rate of production of NADH. One hundred microliters of the stopped reaction were added to 1 mL of reaction mixture containing 50 mM potassium phosphate buffer at pH 8.0, 2.5 mM β-NAD^+, 0.2 mM TPP, 0.13 mM coenzyme A, 0.32 mM DTT and 2 mM sodium pyruvate. The production of NADH was followed at 340 nm for 5 min.
Three samples of liver P-type used. All were suspended on day of use at the rate of 1 g liver in […] water. All three preparations were tested before and after treatment with dithizone, while the one preparation was also treated with Mn after dithizone to attempt to reactivate it. The reactivation procedure was to preincubate a de-metallized sample with 2.7 mM Mn for 15 min before it was added to the inactivated PDH mix.
The P-1 sample used here was the same as that used in previous experiment although a second tube of that composite sample. The dithizone treated sample was the same as that used previously. For reactivation, the de-medalist sample was pre-incubated for 15 mins with either 2.7 mM Mn, 1.8 mM Zn or 2.7 mM Mn-1.8 mM Zn. All samples tested on normal assay system using 10 μl P′ase and 5 ul of sample.

Glycogen synthase = Glycogen synthase activity in rat fat cells; type: cell-based; conditions: 5 min incubation, 20 μl insulin (25 mU/ml) or 10 μl placenta IPG
Protocol: Glycogen synthase activity was assayed as follows. Fat cells were prepared from epididymal adipose tissue using 140-150 g rats (Wistar strain). Fat pads from 3 rats were cut into small pieces and incubated in 8 ml of Krebs ringer bicarbonate containing 2% albumin plus 24 mg of collagenase for 25 minutes at 37° C. The isolated cells were filtered and washed in 3×10 ml Krebs ringer phosphate medium containing 30 mg/ml of bovine serum albumin (Fraction v, Sigma), the pH was adjusted to 7.4 with NaOH after addition of albumin. The washed cells were also resuspended in Krebs ringer phosphate (10 ml of medium/g of original tissue).
For measurement of enzyme activities, three incubation vessels were set up, each contained 5 ml cells. There were no additions to the first, the second contained 20 μl insulin (25 mU/ml) and the third 10 μl placenta IPG. […]
The reaction was stopped with 0.5 ml cold buffer (100 mM KF/10 mM EDTA/1 mM benzamidine (4), pH 7.0) and the cells homogenized and transferred to Eppendorf tubes. These were spun at 10,000 g for 15 min and the middle layer collected for enzyme assay all tubes were set up in duplicate and measured in the presence of 0.01 mM glucose 6-phosphate except the maximally activated glycogen synthase tube which contained 7.2 mM glucose 6-phosphate. […] Glycogen synthase activity is expressed as a percentage of the total synthase activity (G6P maximum).

rat liver = assay: IPG release in rat liver following infusion with insulin; type: in vivo; conditions: 2 minutes after insulin infusion
[2] = reactivation experiment, 10 μl P'ase and 5 ul of sample, 2.7 mM Mn, 1.8 mM Zn, Treated = dithizone

Row | Compound | effect on P'ase activity ([1]; 10^−4M Mn (assay no: 3)) | PDH phosphatase (activity) ([1]; +Mg2+ + Ca2+) | PDH phosphatase (activity) ([1]; +Mg2+, no Ca2+) | Units/g ([1]; dithizone experiment, Vol used 5 μl, Treated = dithizone, Mn 2.7 mM) | % stimulation ([1]; dithizone experiment, Vol used 5 μl, liver P-type 1 g liver in 10 μl water, Treated = dithizone, Mn 2.7 mM) | % stimulation [1, 2] | Stimulation as % of G6P Maximum (Glycogen synthase) | increase in PDH phosphatase stimulating activity of rat liver (rat liver)
1 | [Mn+2] [Mn, manganese] | no effect | Δ 0.680 OD/min (2) | Δ 0.000 OD/min (6) | 0 Units/g | −11% | +12% |  | 
2 | [Zn+2] [Zn] |  |  |  |  |  | +122% |  | 
3 | insulin |  |  |  |  |  |  | 6.54% | two-fold increase in activity
